# Reference: patent US20260130933A1, “PHARMACEUTICAL COMPOSITION FOR PREVENTION OR TREATMENT OF NEPHROPATHY AND/OR DIABETES MELLITUS, COMPRISING ENAVOGLIFLOZIN” (DAEWOONG PHARMACEUTICAL CO., LTD., priority 2022, published 2026)
# Assay: Example 3: phase 3 trial, enavogliflozin 0.3 mg vs dapagliflozin 10 mg once a day for 24 weeks added to metformin and gemigliptin in patients with type 2 diabetes (same endpoints, rescue drug)
# Type: in vivo, human
# Settings: week 18, per-protocol set
# Method: 1) when Metformin (≥1,000 mg/Day) was Administered at a Constant Dose for at Least 8 Weeks Prior to Pre-Visit (Pre-Screening) • Metformin (≥1,000 mg/day) and gemigliptin (50 mg/day) were co-administered during the 8-week stabilization period. […] 4) when Metformin (≥1,000 mg/Day) and Gemigliptin (50 mg/Day) were Co-Administered at Constant Doses for at Least 8 Weeks Prior to Pre-Visit (Prescreening) • Without a separate stabilization period, Pre-visit (pre-screening) was Visit 1 (screening).
# Subjects who met the inclusion/exclusion criteria continued to receive metformin and gemigliptin while receiving a placebo of the clinical trial drug in a single-blind (subject-blinded) state for a 2-week run-in period.
# Here, the randomized subjects were stratified according to the administration therapy (co-administration with two or less agents (one or two agents) or three or more agents) of a conventional hypoglycemic agent (before washout of another hypoglycemic agent) within 24 weeks prior to obtaining written informed consent and by an HbA1c value (<8% or ≥8%) at Visit 1 (screening) measured in the central laboratory.
# The randomized subjects were administered two tablets of the clinical trial drug corresponding to each administration group once a day, and then visited the institution at weeks 6, 12, 18, and 24 during the 24-week administration period to conduct efficacy and safety assessments. In addition, during the clinical trial period, they were instructed to exercise regularly and control their diet without changing their daily life patterns.
# • 1) Change in HbA1c at week 24 after administration of clinical trial drug compared to Visit 2 (randomization)
# • 1) Change in HbA1c at each time point of weeks 6, 12, and 18 after administration of clinical trial drug compared to Visit 2 (randomization) • 2) Change in FPG at each time point of weeks 6, 12, 18, and 24 after administration of clinical trial drug compared to Visit 2 (randomization) • 3) Proportion of subjects achieving HbA1c<7% at each time point of weeks 6, 12, 18, and 24 after administration of clinical trial drug • 4) Proportion of subjects achieving HbA1c<6.5% at each time point of weeks 6, 12, 18, and 24 after administration of clinical trial drug • 5) Proportion of subjects achieving therapeutic response (HbA1c change (HbA1c at Visit 2—HbA1c at each evaluation time point)>0.5% or HbA1c<7% at each evaluation time point compared to Visit 2 (randomization)) at each time point of weeks 6, 12, 18, and 24 after administration of clinical trial drug • 6) Proportion of subjects achieving therapeutic response (HbA1c change (HbA1c at Visit 2—HbA1c at each evaluation time point)>0.7% or HbA1c<7% at each evaluation time point compared to Visit 2 (randomization)) at each time point of weeks 6, 12, 18, and 24 after administration of clinical trial drug • 7) Proportion of subjects achieving therapeutic response (HbA1c change (HbA1c at Visit 2—HbA1c at each evaluation time point)>1% or HbA1c<7% at each evaluation time point compared to Visit 2 (randomization)) at each time point of weeks 6, 12, 18, and 24 after administration of clinical trial drug
# [1] = enavogliflozin 0.3 mg, dapagliflozin 10 mg
compound,measurement,setting,value
"CCOc1ccc(Cc2cc([C@@H]3O[C@H](CO)[C@@H](O)[C@H](O)[C@H]3O)ccc2Cl)cc1 [Dapagliflozin, reference compound]","Adiponectin, Mean",,6.65 µg/mL
same,"Adiponectin, Median",,6.21 µg/mL
same,"Change from baseline in HOMA-IR, ANCOVA LS mean",,−1.01
same,"Change from baseline in HOMA-IR, Mean",,−1.00
same,"Change from baseline in HOMA-IR, Median",,−0.75
same,"Change from baseline in HOMA-β, ANCOVA LS mean",,4.49
same,"Change from baseline in HOMA-β, Mean",,5.32
same,"Change from baseline in HOMA-β, Median",,2.20
same,"Change from baseline in UACR, ANCOVA LS mean",,-8.90 g/kg
same,"Change from baseline in UACR, Mean",,-8.84 g/kg
same,"Change from baseline in UACR, Median",,0.20 g/kg
same,"Change from baseline in UGCR, ANCOVA LS mean",,45.40 mg/mg
same,"Change from baseline in UGCR, Mean",,43.29 mg/mg
same,"Change from baseline in UGCR, Median",,41.28 mg/mg
same,"Change from baseline in adiponectin, ANCOVA LS mean",,0.36 µg/mL
same,"Change from baseline in adiponectin, Mean",,0.30 µg/mL
same,"Change from baseline in adiponectin, Median",,0.36 µg/mL
same,"Change from baseline in leptin, ANCOVA LS mean",,-1.06 ng/mL
same,"Change from baseline in leptin, Mean",,-1.36 ng/mL
same,"Change from baseline in leptin, Median",,-0.75 ng/mL
same,"HOMA-IR (insulin resistance), Mean",,1.85
same,"HOMA-IR (insulin resistance), Median",,1.53
same,"HOMA-β (beta-cell function), Mean",,45.79
same,"HOMA-β (beta-cell function), Median",,36.80
same,"Leptin, Mean",,9.52 ng/mL
same,"Leptin, Median",,7.80 ng/mL
same,"UACR, Mean",,25.86 g/kg
same,"UACR, Median",,10.20 g/kg
same,"UGCR, Mean",,44.82 mg/mg
same,"UGCR, Median",,42.32 mg/mg
same,"Body weight, Mean",[1],64.37 kg
same,"Change from baseline in FPG, ANCOVA LS mean",[1],-23.55 mg/dL
same,"Change from baseline in FPG, Mean",[1],-24.80 mg/dL
same,"Change from baseline in FPG, Median",[1],-19.00 mg/dL
same,"Change from baseline in HbA1c, ANCOVA LS mean",[1],−0.75 % p
same,"Change from baseline in HbA1c, Mean",[1],−0.79 % p
same,"Change from baseline in HbA1c, Median",[1],−0.72 % p
same,"Change from baseline in body weight, ANCOVA LS mean",[1],-3.01 kg
same,"Change from baseline in body weight, Mean",[1],-2.84 kg
same,"Change from baseline in body weight, Median",[1],-2.70 kg
same,"Change from baseline in fasting C-peptide, ANCOVA LS mean",[1],-0.06 ng/mL
same,"Change from baseline in fasting C-peptide, Mean",[1],-0.06 ng/mL
same,"Change from baseline in fasting C-peptide, Median",[1],-0.07 ng/mL
same,"FPG, Mean",[1],115.72 mg/dL
same,"FPG, Median",[1],114.00 mg/dL
same,"Fasting C-peptide, Mean",[1],0.63 ng/mL
same,"Fasting C-peptide, Median",[1],0.60 ng/mL
same,"HbA1c, Mean",[1],7.04%
same,"HbA1c, Median",[1],6.97%
same,"Subjects achieving HbA1c target of <6.5%, (%)",[1],12.20%
same,"Subjects achieving HbA1c target of <7%, %",[1],56.10%
